# ChEMBL document CHEMBL5385879, “Various strategies for developing APOBEC3G protectors to circumvent human immunodeficiency virus type 1” (Eur J Med Chem, 2023)
# Calls of active or inactive are those of the source. The rule behind the calls is not given here.
# Columns and labels:
# [1] = tested on: Human immunodeficiency virus 1; experiment: Antiviral activity against HIV1 infected in H9 cells assessed as reduction in viral replication measured after 4 days post infection; assay type: functional, organism-based; conditions: Human immunodeficiency virus 1, H9, 96 h
# [2] = Inhibition of HIV1 Vif to human A3G protein-protein interaction
# [3] = Cytotoxicity against HEK293T cells; assay type: toxicity, cell-based, HEK-293T; conditions: human
# [4] = molecular target: Virion infectivity factor (Human immunodeficiency virus type 1 group M subtype B (isolate NY5)(HIV-1), UniProt P12504); experiment: Inhibition of HIV1 Vif; set-up: species or system Human immunodeficiency virus 1
# [5] = tested on: Human immunodeficiency virus 1; experiment: Antiviral activity against HIV1 Bal infected in PBMCs assessed as reduction in viral replication measured after 7 days post infection; assay type: functional, organism-based; conditions: Human immunodeficiency virus 1, Bal, PBMC, 168 h
# [6] = Inhibition of HIV1 GST-tagged Vif (1 to 94 residues) to biotinylated-A3G (110 to 148 residues) (unknown origin) protein-protein interaction by TR-FRET assay
# [7] = tested on: Human immunodeficiency virus 1; experiment: Antiviral activity against HIV-1 Bal infected in PBMCs; assay type: functional, organism-based; conditions: Human immunodeficiency virus 1, Bal, PBMC
# [8] = Cytotoxicity against human PBMCs; assay type: toxicity, cell-based, PBMC; conditions: read-out: TC50 (the source's name)
# Hepatitis B virus [9] = experiment: Antiviral activity against wild type HBV infected in HepG2.2.15 cells assessed as reduction in viral replication; assay type: functional, organism-based
# Hepatitis B virus [10] = experiment: Antiviral activity against HBV infected in ETV/3TC-resistant HepG2.A64 cells assessed as reduction in viral replication; assay type: functional, organism-based
# [11] = tested on: Human immunodeficiency virus 1; experiment: Antiviral activity against HIV1 infected in C8166 cells assessed as reduction in viral replication measured after 3 days by ELISA; assay type: functional, organism-based; conditions: Human immunodeficiency virus 1, C8166, 72 h
# [12] = tested on: Human immunodeficiency virus 2; experiment: Antiviral activity against HIV2 infected in C8166 cells assessed as reduction in viral replication measured after 3 days by ELISA; assay type: functional, organism-based; conditions: Human immunodeficiency virus 2, C8166, 72 h
# [13] = tested on: Human immunodeficiency virus 1; experiment: Antiviral activity against HIV1 infected in PBMCs assessed as reduction in viral replication measured after 7 days by ELISA; assay type: functional, organism-based; conditions: Human immunodeficiency virus 1, PBMC, 168 h
# [14] = tested on: Human immunodeficiency virus 2; experiment: Antiviral activity against HIV2 infected in PBMCs assessed as reduction in viral replication measured after 7 days by ELISA; assay type: functional, organism-based; conditions: Human immunodeficiency virus 2, PBMC, 168 h
# [15] = tested on: Human immunodeficiency virus 1; experiment: Antiviral activity against HIV1 infected in CEM cells assessed as reduction in viral replication measured on day 7 postinfection by ELISA; assay type: functional, organism-based; conditions: Human immunodeficiency virus 1, CCRF-CEM, 168 h
# HEK293T = experiment: Inhibition of HIV1 Vif expressed in HEK293T cells to cul5 (unknown origin) protein-protein interaction; assay type: cell-based
# [16] = tested on: Human immunodeficiency virus 1; experiment: Antiviral activity against HIV1 infected in HEK293T cells cotransfected with pNL4-3 plus A3G vector assessed as reduction in viral replication measured after 48 hrs post transfection by MAGI assay; assay type: functional, organism-based; conditions: Human immunodeficiency virus 1, HEK-293T
# [17] = tested on: Human immunodeficiency virus 1; experiment: Antiviral activity against HIV-1 NL4-3 infected in HEK293T cells cotransfected with VSVG and hA3G-HA assessed as reduction in viral replication preincubated for 36 hrs followed by SubT1 cells infection for 48 hrs by luciferase based assay; assay type: functional, organism-based; conditions: Human immunodeficiency virus 1, NL4-3, HEK-293T
# [18] = tested on: Human immunodeficiency virus 1; experiment: Antiviral activity against HIV-1 NL4-3 infected in HEK293T cells cotransfected with Vif and hA3G-HA assessed as fold increase in A3G-HA level at 10 uM measured after 36 hrs by Western blotting analysis; assay type: functional
# Virion infectivity factor, sequence (P12504 1-150 limits assumed): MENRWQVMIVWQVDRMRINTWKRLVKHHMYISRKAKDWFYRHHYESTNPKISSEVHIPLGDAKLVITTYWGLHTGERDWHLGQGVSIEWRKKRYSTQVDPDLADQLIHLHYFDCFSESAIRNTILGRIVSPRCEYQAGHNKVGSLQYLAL
# Virion infectivity factor, sequence (P12504 151-192 limits assumed): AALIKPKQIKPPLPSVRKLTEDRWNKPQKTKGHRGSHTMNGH
compound,measurement,setting,value
N#C/C(=C\c1ccc(Br)nc1)c1nc2ccccc2[nH]1,IC50,[1],1010 nM
COc1ccc(C(=O)Oc2cc(OC)c(OC)c(OC)c2)cc1NC(=O)C(C)Br (stereo not drawn),IC50,[2],17 nM
Cc1noc(C)c1CSc1nc2ccccc2n1-c1ccccc1,IC50,[3],30000 nM
COc1ccccc1NC(=O)c1ccccc1Sc1ccc([N+](=O)[O-])cc1,IC50,[4],6000 nM
CCCCn1c(SCc2c(C)noc2C)nc2cc(S(N)(=O)=O)ccc21,IC50,[3],30000 nM
C/C(=C/C(=O)c1cccnc1)Nc1ccc(O)cc1,IC50,[5],8400 nM
same,IC50,[6],2180 nM
same,IC50,[7],4200 nM
same,CC50,[8],> 100000 nM
CNc1cc(C(=O)Nc2ccc(Cl)cc2)ccc1OC,IC50,Hepatitis B virus [9],1990 nM
same,IC50,Hepatitis B virus [10],3300 nM
COc1ccc(C(=O)Nc2cc(OC)c(OC)c(OC)c2)cc1NC(=O)C(C)Br (stereo not drawn),IC50,[2],17 nM
CCCCCCCCCCCCCCCCCCCCCCC(=O)O[C@@H]1[C@@H](C)[C@@]2(O)[C@@H](C=C(COC(C)=O)C[C@]3(O)C(=O)C(C)=C[C@@H]23)[C@@H]2C(C)(C)[C@]12O,IC50,[11],100 nM
same,IC50,[12],100 nM
same,IC50,[13],100 nM
same,IC50,[14],100 nM
CC(C)(C)OC(=O)NCCCC[C@@H](NC(=O)OCc1ccccc1)C(=O)Oc1ccc([N+](=O)[O-])cc1,IC50,[15],8160 nM
c1ccc(CN(CCN(Cc2ccccn2)Cc2ccccn2)Cc2ccccn2)nc1,inhibition,HEK293T,Active
CCOC(=O)c1cc(C(=O)c2ccc3ccccc3c2)n2ccc(C(=O)c3ccccc3)cc12,IC50,[16],25000 nM
Fc1ccc(OCC(Cn2ccnc2)c2ccc(Cl)cc2Cl)cc1 (stereo not drawn),IC50,[17],8630 nM
same,fold change (FC),[18],1.7
COc1cc(-c2ccc(Nc3ccccc3C(=O)O)c(OC)c2)ccc1Nc1ccccc1C(=O)O,IC50,[5],1370 nM
same,CC50,[8],> 100000 nM
